Structures can show the parent of a compound that is named as a salt.
Assays:
[1] = target: T1, MMP-8 catalytic domain (residues 85-242) (Homo sapiens, UniProt P22894); assay: X-ray crystallography of MMP-8 catalytic domain inhibitor complexes; conditions: X-ray crystal structure of the complex, IX, XI relative to compound XII
T1 construct: The catalytic domain (residues 85-242) of MMP-8, neutrophil collagenase, folds into a compact globular structure; made in house
Source text: The MMP-8 catalytic domain was cloned by PCR amplification from a cDNA contruct of full-length MMP-8. The amplified DNA was cloned into NdeI/HindIII restriction sites in an in-house pRec expression vector. Protein was expressed in a bacterial expression system by induction with nalidixic acid. Recombinant protein was expressed primarily as inclusion bodies. Purified protein was recovered in high yield following ion exchange chromatography of denatured protein.
Slow dehydration of the drop leads to formation of single crystals of the inhibitor complex. Details are below.
12 mg/ml MMP-8 in 10 mM MES pH 6.0, 100 mM NaCl, 5 mM CaCl2 pre-incubated with 1 mM inhibitor for 10 minutes at ambient temperature.
4 ul of the protein-inhibitor complex mixed with 6.8 ul 10% PEG6000 and 0.2 M MES pH 6.0
0.8 to 2.5 M sodium/potassium phosphate pH 6.0 (not mixed with protein/inhibitor/PEG drop).
Intensities from crystals of the enzyme inhibitor complexes were measured on a MAR image plate at −140° C. X-rays were generated from a rotating anode generator using a Cu target. The CuKα X-rays were focused onto the samples using long Pt and Ni mirrors.
The data were integrated and scaled using the program DENZO (Otwinowski, Z. and Minor W. in Proceedings of CCP4 Study Weekend: Data Collection and Processing (eds. Sawyer, L., Issacs, N., and Bailey, S.) pp. 56-62 (SERC Daresbury Laboratories, Warrington, UK 1993)).
Standard simulated annealing protocols in the program XPLOR (Brünger, A. T. (1993). XPLOR (Version 3.1): A System for X-ray Crystallography and NMR (Yale University Press, New Haven, Conn.)) were used.
New electron density at the expected active site could in all cases be interpreted with flexible, three-dimensional models of the inhibitors as generated in the program […] (Biosym Technologies (1993). Insight II User Guide, Version 2.2.0. San Diego). Solvent positions were also identified from these electron density maps and side chains of the protein were also sometimes manually adjusted.
Final refinements of the structure were carried out with inclusion of inhibitor and solvent ligands. In the refinements, 10% of the data was set aside for cross validation by evaluation of Rfree (A. T. Brünger, “Free R Value: a novel statistical quantity for accessing the accuracy of crystal structures,” Nature 355, 472-475 (1992)).

[2] = clinical trials in cancer patients; cited from earlier work
cancer-specific antigens = conditions: meta analysis of Phase I/II studies; advanced, treatment-refractory solid tumor cancers (colorectal, pancreatic, ovarian, prostate); cited from earlier work

T1 sequence (P22894 105-262): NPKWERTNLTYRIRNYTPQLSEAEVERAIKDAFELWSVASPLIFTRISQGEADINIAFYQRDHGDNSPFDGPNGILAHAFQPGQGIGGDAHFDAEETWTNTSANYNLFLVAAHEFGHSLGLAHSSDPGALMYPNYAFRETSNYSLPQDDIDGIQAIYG

Compound	effect on conformation of the amino acid backbone of the S1' pocket of MMP-8 [1]	most common drug-related toxicity [2]	effect on rise of cancer-specific antigens used as surrogate markers for biological activity (cancer-specific antigens)
CCCCCc1ccc(C(=O)Nc2ccc(S(=O)(=O)N(CCN3CCOCC3)[C@@H](C(=O)NO)C(C)C)cc2)cc1 [Compound X, R-N-[4-[[[1-(hydroxyamino)carbonyl]-2-methylpropyl][2-(4-morpholinyl)ethyl]amino]-sulfonyl]phenyl]-4-pentylbenzamide, monohydrochloride]	causes the backbone to deform significantly	–	–
CCCCCCc1ccc(C(=O)Nc2ccc(S(=O)(=O)N(CCN3CCOCC3)[C@@H](C(=O)NO)C(C)C)cc2)cc1 [Compound XI, (R)-4-hexyl-N-[4-[[[1-(hydroxyamino)-carbonyl]-2-methylpropyl][2-(4-morpholinyl)ethyl]amino]sulfonyl]-phenylbenzamide, monohydrochloride]	causes the backbone to deform significantly	–	–
CC(O)(CS(=O)(=O)c1ccc(Oc2ccccc2)cc1)C(=O)NO (stereo not shown) [Compound XIV, reference compound]	essentially no effect on the conformation of the amino acid backbone	–	–
CCCCCc1ccc(C(=O)Nc2ccc(S(=O)(=O)N(CCN3CCOCC3)[C@@H](C(=O)O)C(C)C)cc2)cc1 [IX, N-[2-(4-morpholinyl)ethyl]-N-[[4-[(4-pentylbenzoyl)amino]phenyl]sulfonyl]-D-valine]	causes the backbone to deform significantly	–	–
CCCc1ccc(C(=O)Nc2ccc(S(=O)(=O)N[C@@H](C(=O)O)C(C)C)cc2)cc1 [XII]	essentially no effect on the conformation of the amino acid backbone	–	–
CNC(=O)[C@@H](NC(=O)[C@H](CC(C)C)[C@H](O)C(=O)NO)C(C)(C)C [marimastat]	–	musculoskeletal pain and stiffness	dose-related reduction in the rise of cancer-specific antigens
